Patent publication US10683276B2, “Heterocycle-substituted bicyclic azole pesticides” (FMC Corporation, priority 2015, dated 2020)

What was measured:
Assay type in all cases: in vivo
[1] = tested on: diamondback moth (Plutella xylostella (L.)); assay: Test A: control of diamondback moth, foliar spray on mustard plant; settings: sprayed at 250 ppm; neonate larvae on mustard plant; assessed after 6 days
Procedure: (§1) Test compounds were formulated using a solution containing 10% acetone, 90% water and 300 ppm X-77® Spreader Lo-Foam Formula non-ionic surfactant containing alkylarylpolyoxyethylene, free fatty acids, glycols and isopropanol (Loveland Industries, Inc. Greeley, Colo., USA). The formulated compounds were applied in 1 mL of liquid through a SUJ2 atomizer nozzle with ⅛ JJ custom body (Spraying Systems Co. Wheaton, Ill., USA) positioned 1.27 cm (0.5 inches) above the top of each test unit. Test compounds were sprayed at the rates indicated, and each test was replicated three times.
For evaluating control of diamondback moth (Plutella xylostella (L.)) the test unit consisted of a small open container with a 12-14-day-old mustard plant inside. This was pre-infested with ˜50 neonate larvae that were dispensed into the test unit via corn cob grits using an inoculator. The larvae moved onto the test plant after being dispensed into the test unit.
Test compounds were formulated and sprayed at 250 and/or 50 ppm. After spraying of the formulated test compound, each test unit was allowed to dry for 1 hour and then a black, screened cap was placed on top. The test units were held for 6 days in a growth chamber at 25° C. and 70% relative humidity. Plant feeding damage was then visually assessed based on foliage consumed, and larvae were assessed for mortality.

[2] = tested on: green peach aphid (Myzus persicae (Sulzer)); assay: Test C: control of green peach aphid, spray on radish plant; settings: 144 h, sprayed at 50 ppm, assessed after 6 days
Procedure: as §1
For evaluating control of green peach aphid (Myzus persicae (Sulzer)) through contact and/or systemic means, the test unit consisted of a small open container with a 12-15-day-old radish plant inside. This was pre-infested by placing on a leaf of the test plant 30-40 aphids on a piece of leaf excised from a culture plant (cut-leaf method). The aphids moved onto the test plant as the leaf piece desiccated. After pre-infestation, the soil of the test unit was covered with a layer of sand.
Test compounds were formulated and sprayed at 250 and/or 50 ppm. After spraying of the formulated test compound, each test unit was allowed to dry for 1 hour and then a black, screened cap was placed on top. […] Each test unit was then visually assessed for insect mortality.

[3] = tested on: cotton melon aphid (Aphis gossypii (Glover)); assay: Test D: control of cotton melon aphid, spray on cotton plant; settings: 144 h, sprayed at 50 ppm, assessed after 6 days
Procedure: as §1
For evaluating control of cotton melon aphid (Aphis gossypii (Glover)) through contact and/or systemic means, the test unit consisted of a small open container with a 6-7-day-old cotton plant inside. This was pre-infested with 30-40 insects on a piece of leaf according to the cut-leaf method, and the soil of the test unit was covered with a layer of sand.
Test compounds were formulated and sprayed at 250 and/or 50 ppm. After spraying, the test units were maintained in a growth chamber for 6 days at 19° C. and 70% relative humidity. Each test unit was then visually assessed for insect mortality.

[4] = tested on: sweetpotato whitefly (Bemisia tabaci (Gennadius)); assay: Test E: control of sweetpotato whitefly, spray on cotton plant; settings: sprayed at 50 ppm; eggs on cotton plant; assessed after 13 days
Procedure: as §1
For evaluating control of the sweetpotato whitefly (Bemisia tabaci (Gennadius)) through contact and/or systemic means, the test unit consisted of a small open container with a 12-14-day-old cotton plant inside. Prior to the spray application, both cotyledons were removed from the plant, leaving one true leaf for the assay. Adult whiteflies were allowed to lay eggs on the plant and then were removed from the test unit. Cotton plants infested with at least 15 eggs were submitted to the test for spraying.
Test compounds were formulated and sprayed at 250 and/or 50 ppm. After spraying, the test units were allowed to dry for 1 hour. […] Each test unit was then visually assessed for insect mortality.

[5] = tested on: Western Flower Thrips (Frankliniellla occidentalis (Pergande)); assay: Test F: control of Western Flower Thrips, spray on Soleil bean plant; settings: sprayed at 250 ppm; adult thrips on Soleil bean plant; held for 6 days
Procedure: For evaluating control of the Western Flower Thrips (Frankliniellla occidentalis (Pergande)) through contact and/or systemic means, the test unit consisted of a small open container with a 5-7-day-old Soleil bean plant inside.
Test compounds were formulated and sprayed at 250 and/or 50 ppm. After spraying, the test units were allowed to dry for 1 hour, and then 22-27 adult thrips were added to each unit. A black, screened cap was placed on top, and the test units were held for 6 days at 25° C. and 45-55% relative humidity.

CN(C)C(=O)C(C)(C)NC(=O)C(C)(C)NC(=O)c1cccc2nn(-c3cccnc3)cc12 [Compound 2]
control efficacy (40% or less feeding damage and/or 100% mortality) [1]: very good to excellent levels of control efficacy

CC(C)(NC(=O)c1cccc2nn(-c3cccnc3)cc12)C(=O)NCc1ccccc1 [Compound 25, N-[1,1-dimethyl-2-oxo-2-[(phenylmethyl)amino]ethyl]-2-(3-pyridinyl)-2H-indazole-4-carboxamide]
mortality at 50 ppm [2]: ≥ 80% | mortality at 50 ppm [3]: ≥ 80%

CC(C)(NC(=O)c1cccc2nn(-c3cccnc3)cc12)C(=O)NCc1ccccn1 [Compound 26]
mortality [4]: at least 50%

CC(C)(NC(=O)c1cccc2nn(-c3cccnc3)cc12)C(=O)NC1CCC1 [Compound 43]
control efficacy (30% or less plant damage and/or 100% mortality) [5]: very good to excellent levels of control efficacy

CON(C)C(=O)C(C)(C)NC(=O)c1cccc2nn(-c3cccnc3)cc12 [Compound 47]
control efficacy (30% or less plant damage and/or 100% mortality) [5]: very good to excellent levels of control efficacy

CONC(=O)C(C)(C)NC(=O)c1cccc2nn(-c3cccnc3)cc12 [Compound 48]
control efficacy (30% or less plant damage and/or 100% mortality) [5]: very good to excellent levels of control efficacy
